According to PMC4527731, “Calcineurin Undergoes a Conformational Switch Evoked via Peptidyl-Prolyl Isomerization” (PLoS ONE, 2015):

Columns and labels:
[1] = system: Endogenous CN in HEK 293T cells; test: Inhibition of endogenous CN activity by CsA in NFATc-luciferase reporter assay; type: cell-based; conditions: 1 μM CsA, 30 min before stimulation with Io/PMA/Ca^2+ for 6 hours
Protocol: Flag-hCNAα mutants were performed by PCR using CN specific primers (Table 2). ΔNIR mutant lacks the CNA PXIXIT binding region VMNIR ranging from amino acids 328 to 332. All Flag-CNA constructs bear the Y341F mutation to achieve CsA resistance unless for the specified wt. Luciferase gene assays were performed in HEK 293T cells transfected with 100 ng of 3xNFAT-luc plasmid, 100 ng of pBJ5-mCNB, 1 ng of pRLNull as an internal transfection control and 400 ng of the indicated Flag-hCNAα mutants constructs. Stimulation was achieved by treating the cells with.1 μM ionomycin, 10 nM PMA and 10 mM CaCl2. Endogenous CN activity was abolished by treating cells with 1 μM Cyclosporin A (CsA) 30 min prior to stimulation. FK506 was used as a positive control for CsA-resistant CN. After 6h of cell stimulation, 10 μl of cell extract were analyzed for luciferase gene expression using the Dual-Luciferase Reporter Assay (Promega) following the manufacturer’s protocol on a multiplate luminometer (FLUOstar Optima, BMG). Luciferase units were normalized to densitometric data of 10 μl of cell extract analyzed by western blot. Absence of cell stimulation is shown with a minus symbol (-). Three experiments were performed with triplicates. Stimulation of the Y341F mutant was considered as 100% value.

[2] = system: CNA (human CNAα catalytic domain); test: Fluorescence polarization competition of CF-SPRIEIT-CNA complex; type: binding; conditions: 10 nM CF-labeled SPRIEIT, 10 μM CNA, unlabeled competitor pre-incubated 15 min at increasing concentrations, room temperature, ex 485 nm, em 535 nm, two independent experiments in triplicates (Fig 6a)
Protocol: Peptides were purchased from the Peptide 2.0 Company (Chantilly, VA) and synthesized as acetylated N-terminal and C-terminal amides for the unlabeled peptides and N-carboxyfluorescein (CF) and C-terminal amide for the labelled peptide. The sequences of the peptides used are the following: […] for the RCAN^183–203 peptide; […] for the cis-CNA derived peptide; and […] for the NFATc2-SPRIEIT (SPRIEIT) peptide. All peptides were resuspended in 100% DMSO at 10 mM. Cyclosporin A (CsA) was obtained from Sandoz. Ionomycin (Io) sodium salt and Phorbol 12-myristate 13-acetate sodium salt (PMA) were obtained from Sigma. The anti-calcineurin A antibody was purchased from BD Biosciences and the anti-Flag M2 antibody was purchased from Sigma. The protease and phosphatase inhibitor cocktails were from Calbiochem.
Expression, purification and isolation of the CNAα domain was performed as previously described. […]
Competition assays were performed as described. […] Unlabeled competitor peptides were pre-incubated with CNA at increasing concentrations for 15 min before adding the fluorescence labeled peptide. Experiments were performed in a OptiPlate black 384-well-flat-bottom plates (PerkinElmer Life Sciences, Waltham, MA) and measured using a Wallac VICTOR (TM) X5 2030 Multilabel Reader (PerkinElmer Life Sciences) with excitation and emission wavelengths of 485 nm and 535 nm respectively. […]

[3] = system: Endogenous CNA / GST-RCAN3 interaction; test: GST-RCAN3 pull-down competition assay; type: binding; conditions: HEK 293T lysate, peptide at increasing concentrations for 30 min, then GST–RCAN3 beads 90 min at 4°C (Fig 6b)
Protocol: (§1) In GST-RCAN3 pull-down competition assays, HEK 293T cells were lysed in co-immunoprecipitation buffer (50 mM Tris–HCl, pH 7.5, 100 mM NaCl, 2 mM CaCl2, 5 mM MgCl2, 1% IGEPAL, 1 mM DTT, 2 mM PMSF and protease and phosphatase inhibitor cocktails) and the CNA- and the RCAN3-derived peptides containing a PxIxIT sequence were added to the extracts at the indicated concentrations for 30 min. Then, the soluble extracts were incubated with GST–RCAN3 bound to Glutathione Sepharose beads for 90 min at 4°C. After extensive washing, co-precipitated proteins were eluted by resuspension in 2× Laemmli buffer and boiled for 10 min. For GST–NFATc2 pull-down competition assays, HEK 293T cells transfected with FLAG–CNA (2–389) were lysed in a buffer containing 50 mM Tris–HCl, pH 8, 100 mM NaCl, 1.5 mM CaCl2, 6 mM MgCl2, 0.2% TX-100, 1 mM PMSF and protease and phosphatase inhibitor cocktails. Soluble extracts were incubated with GST–NFATc2 bound to Glutathione Sepharose beads for 60 min at 4°C.

[4] = system: Flag-CNA 2–389 / GST-NFATc2 interaction; test: GST-NFATc2 pull-down competition assay; type: binding; conditions: HEK 293T cells transfected with FLAG–CNA (2–389); soluble extracts with GST–NFATc2 beads 60 min at 4°C; increasing peptide concentrations (Fig 6c)
Protocol: as §1

[5] = target: T1, catalytic domain of human CNAα (residues 2–347) (human, UniProt Q08209-1 2-347); test: fluorescence polarisation; competition: 10 nM CF-labeled SPRIEIT peptide and 10 μM CNA; unlabeled competitor peptides pre-incubated with CNA at increasing concentrations for 15 min; room temperature; conditions: both partners purified
T1 construct: calcineurin catalytic subunit A, alpha isoform, human, NCBI NP_000935.1, catalytic domain residues 2-347; also called CNAα catalytic domain; trans-CNA; source: from the pGEX-6P-1-CNAα plasmid
T1 sequence (Q08209 2-347): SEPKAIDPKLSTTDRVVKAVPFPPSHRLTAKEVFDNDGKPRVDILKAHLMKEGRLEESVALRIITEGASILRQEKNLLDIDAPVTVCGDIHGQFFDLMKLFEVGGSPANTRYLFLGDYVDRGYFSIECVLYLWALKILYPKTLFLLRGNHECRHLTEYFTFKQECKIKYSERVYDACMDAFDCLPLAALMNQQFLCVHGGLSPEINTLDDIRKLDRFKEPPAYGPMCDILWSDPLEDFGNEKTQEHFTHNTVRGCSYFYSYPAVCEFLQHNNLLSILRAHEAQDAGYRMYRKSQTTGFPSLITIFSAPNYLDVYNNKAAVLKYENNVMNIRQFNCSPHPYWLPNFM

| Molecule | endogenous CN activity after CsA treatment [1] | interference with CN–SPRIEIT peptide interaction (fluorescence polarization competition) [2] | interference with CN–GST-RCAN3 interaction (pull down) [3] | interference with CN–GST-NFATc2 interaction (pull down) [4] | binding result [5] |
| --- | --- | --- | --- | --- | --- |
| Cyclosporin A [CsA] | abolished |  |  |  |  |
| NNKAAVLKYE |  | does not interfere with high affinity interactions | does not interfere with high affinity interactions | does not interfere with high affinity interactions |  |
| KYELHAGTESTPSVVVHVCES [R3^183-203, RCAN3-derived PxIxIT-containing peptide (amino acids 183–203)] |  | able to disrupt CN interaction with proteins containing a PxIxIT motif | able to disrupt CN interaction with proteins containing a PxIxIT motif | able to disrupt CN interaction with proteins containing a PxIxIT motif |  |
| Ac-KYELHAGTESTPSVVVHVCES-NH2 (source: synthetic peptide, bought: Peptide 2.0 Company) [RCAN3-derived PxIxIT-containing peptide (amino acids 183–203)] |  |  |  |  | binds |
